US12077503B2, “Substituted cyclic amides and their use as herbicides” (FMC CORPORATION, priority 2015, dated 2024)

Legend:
Experiment in all cases: Test A postemergence
Format in all cases: in vivo
[1] = test system: blackgrass (Alopecurus myosuroides); settings: Alopecurus myosuroides, post-emergence, 240 h, postemergence, read-out: Blackgrass plant response rating; for pest or weed control at 125 g/ha: 125 g ai/ha, visual injury on 0 to 100 scale (0 no effect, 100 complete control), approx. 10 d; for pest or weed control at 500 g/ha: 500 g ai/ha, 0 to 100 scale, 0 is no effect, 100 is complete control
How it was run: (§1)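 Each rating is a visual injury score from 0 to 100 given about 10 d after treatment, judged against untreated controls kept alongside in the greenhouse. In loam soil–sand blend, seeds got a preemergence directed soil spray, while postemergence plants were 2 to 10 cm tall at spraying.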

corn (Zea mays) = settings: Zea mays, post-emergence, 240 h, postemergence, read-out: Corn plant response rating; for plant injury at 125 g/ha: 125 g ai/ha, visual injury on 0 to 100 scale (0 no effect, 100 complete control), approx. 10 d; for plant injury at 500 g/ha: 500 g ai/ha, 0 to 100 scale, 0 is no effect, 100 is complete control
How it was run: as §1

[2] = test system: Galium (catchweed bedstraw, Galium aparine); settings: Galium, post-emergence, 240 h, postemergence, read-out: Galium plant response rating; for pest or weed control at 125 g/ha: 125 g ai/ha, visual injury on 0 to 100 scale (0 no effect, 100 complete control), approx. 10 d; for pest or weed control at 500 g/ha: 500 g ai/ha, 0 to 100 scale, 0 is no effect, 100 is complete control
How it was run: as §1

[3] = test system: pigweed (Amaranthus retroflexus); settings: Amaranthus retroflexus, post-emergence, 240 h, postemergence, read-out: Pigweed plant response rating; for pest or weed control at 125 g/ha: 125 g ai/ha, visual injury on 0 to 100 scale (0 no effect, 100 complete control), approx. 10 d; for pest or weed control at 500 g/ha: 500 g ai/ha, 0 to 100 scale, 0 is no effect, 100 is complete control
How it was run: as §1

[4] = test system: ragweed (common ragweed, Ambrosia elatior); settings: Ambrosia artemisiifolia, post-emergence, 240 h, postemergence, read-out: Ragweed plant response rating; for pest or weed control at 125 g/ha: 125 g ai/ha, visual injury on 0 to 100 scale (0 no effect, 100 complete control), approx. 10 d; for pest or weed control at 500 g/ha: 500 g ai/ha, 0 to 100 scale, 0 is no effect, 100 is complete control
How it was run: as §1

[5] = test system: ryegrass, Italian (Italian ryegrass, Lolium multiflorum); settings: Lolium multiflorum, post-emergence, 240 h, postemergence, read-out: Ryegrass, Italian plant response rating; for pest or weed control at 125 g/ha: 125 g ai/ha, visual injury on 0 to 100 scale (0 no effect, 100 complete control), approx. 10 d; for pest or weed control at 500 g/ha: 500 g ai/ha, 0 to 100 scale, 0 is no effect, 100 is complete control
How it was run: as §1

Cc1cc([C@H]2CN(C)C(=O)[C@@H]2C(=O)Nc2ccccc2F)ccc1Br [Compound 1098]
pest or weed control at 125 g/ha [1]: 20%
pest or weed control at 500 g/ha [1]: 30%
plant injury at 125 g/ha (corn (Zea mays)): 0%
plant injury at 500 g/ha (corn (Zea mays)): 70%
pest or weed control at 125 g/ha [2]: 30%
pest or weed control at 500 g/ha [2]: 40%
pest or weed control at 125 g/ha [3]: 0%
pest or weed control at 500 g/ha [3]: 0%
pest or weed control at 125 g/ha [4]: 0%
pest or weed control at 500 g/ha [4]: 0%
pest or weed control at 125 g/ha [5]: 40%
pest or weed control at 500 g/ha [5]: 50%

Cc1cc([C@H]2CN(C)C(=O)[C@@H]2C(=O)Nc2cccc(F)c2F)ccc1Br [Compound 1099]
pest or weed control at 125 g/ha [1]: 20%
pest or weed control at 500 g/ha [1]: 40%
plant injury at 125 g/ha (corn (Zea mays)): 50%
plant injury at 500 g/ha (corn (Zea mays)): 60%
pest or weed control at 125 g/ha [2]: 50%
pest or weed control at 500 g/ha [2]: 60%
pest or weed control at 125 g/ha [3]: 20%
pest or weed control at 500 g/ha [3]: 50%
pest or weed control at 125 g/ha [4]: 0%
pest or weed control at 500 g/ha [4]: 40%
pest or weed control at 125 g/ha [5]: 40%
pest or weed control at 500 g/ha [5]: 60%

O=C1NC[C@H](c2cscn2)[C@H]1C(=O)Nc1cccc(F)c1F [Compound 1111]
pest or weed control at 125 g/ha [1]: 0%
pest or weed control at 500 g/ha [1]: 0%
plant injury at 125 g/ha (corn (Zea mays)): 0%
plant injury at 500 g/ha (corn (Zea mays)): 0%
pest or weed control at 125 g/ha [2]: 0%
pest or weed control at 500 g/ha [2]: 0%
pest or weed control at 125 g/ha [3]: 0%
pest or weed control at 500 g/ha [3]: 0%
pest or weed control at 125 g/ha [4]: 0%
pest or weed control at 500 g/ha [4]: 0%
pest or weed control at 125 g/ha [5]: 0%
pest or weed control at 500 g/ha [5]: 0%

O=C1NC[C@H](c2cc(C(F)F)cs2)[C@H]1C(=O)Nc1ccccc1F [Compound 1116]
pest or weed control at 125 g/ha [1]: 0%
pest or weed control at 500 g/ha [1]: 30%
plant injury at 125 g/ha (corn (Zea mays)): 0%
plant injury at 500 g/ha (corn (Zea mays)): 0%
pest or weed control at 125 g/ha [2]: 0%
pest or weed control at 500 g/ha [2]: 40%
pest or weed control at 125 g/ha [3]: 0%
pest or weed control at 500 g/ha [3]: 0%
pest or weed control at 125 g/ha [4]: 0%
pest or weed control at 500 g/ha [4]: 0%
pest or weed control at 125 g/ha [5]: 0%
pest or weed control at 500 g/ha [5]: 20%

O=C1NC[C@H](c2cc(C(F)F)cs2)[C@H]1C(=O)Nc1cccc(F)c1F [Compound 1117]
pest or weed control at 125 g/ha [1]: 0%
pest or weed control at 500 g/ha [1]: 40%
plant injury at 125 g/ha (corn (Zea mays)): 20%
plant injury at 500 g/ha (corn (Zea mays)): 40%
pest or weed control at 125 g/ha [2]: 40%
pest or weed control at 500 g/ha [2]: 40%
pest or weed control at 125 g/ha [3]: 0%
pest or weed control at 500 g/ha [3]: 0%
pest or weed control at 125 g/ha [4]: 0%
pest or weed control at 500 g/ha [4]: 30%
pest or weed control at 125 g/ha [5]: 0%
pest or weed control at 500 g/ha [5]: 40%

CN1C[C@H](c2csc(C(F)F)c2)[C@@H](C(=O)Nc2cccc(F)c2F)C1=O [Compound 1122]
pest or weed control at 125 g/ha [1]: 40%
pest or weed control at 500 g/ha [1]: 60%
plant injury at 125 g/ha (corn (Zea mays)): 50%
plant injury at 500 g/ha (corn (Zea mays)): 90%
pest or weed control at 125 g/ha [2]: 50%
pest or weed control at 500 g/ha [2]: 60%
pest or weed control at 125 g/ha [3]: 20%
pest or weed control at 500 g/ha [3]: 40%
pest or weed control at 125 g/ha [4]: 50%
pest or weed control at 500 g/ha [4]: 50%
pest or weed control at 125 g/ha [5]: 30%
pest or weed control at 500 g/ha [5]: 60%
